The values below come from patent US20200131144A1, “AMINE OR (THIO)AMIDE CONTAINING LXR MODULATORS” (Phenex-FXR GmbH, priority 2017, published 2020).

Data set [1] addresses T1, LXRα ligand-binding domain (LBD) (Homo sapiens, UniProt Q13133).
T1 construct: expressed in transfected cells; host or cells: HEK293
T1 sequence (Q13133 155-447): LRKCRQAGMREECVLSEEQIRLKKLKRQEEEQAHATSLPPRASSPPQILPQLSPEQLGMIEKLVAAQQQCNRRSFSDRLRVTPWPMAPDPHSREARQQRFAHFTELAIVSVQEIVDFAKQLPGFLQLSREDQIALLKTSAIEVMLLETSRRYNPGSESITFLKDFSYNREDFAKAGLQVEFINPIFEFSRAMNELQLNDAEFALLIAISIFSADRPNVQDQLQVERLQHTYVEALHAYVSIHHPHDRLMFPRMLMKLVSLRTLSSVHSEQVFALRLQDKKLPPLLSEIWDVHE
The experiment in a line: LXR Gal4 reporter transient transfection assay, mammalian two-hybrid, LBD-M2H Gal4α. In kind it is cell-based. The note with it: HEK293 cells; inverse agonist unless *. The procedure: (§1) The tested compounds were usually dissolved, tested and stored as 20 mM stock solutions in DMSO. Since sulfonyl acetic acid derivatives tend to decarboxylate under these conditions, these stock solutions were prepared, tested and stored as 20 mM DMSO stock solutions containing 100 mM trifluoroacetic acid (5 equivalents). Sulfonyl acetic acid derivatives are shelf stable as solid at rt for long time as reported by Griesbrecht et al. (Synlett 2010:374) or Faucher et al. (J. Med. Chem. 2004; 47:18).
(§2) LXR Gal4 Reporter Transient Transfection Assays
(§3) LXRα and LXRβ activity status was determined via detection of interaction with coactivator and corepressor proteins in mammalian two-hybrid experiments (M2H). For this, via transient transfection the full length (FL) proteins of LXRα (amino acids 1-447; NP005684; SEQ ID NO:1) or LXRβ-(amino acids 1-461; NP009052; SEQ ID NO:2) or the ligand-binding domains (LBD) of LXRα (amino acids 155-447 SEQ ID NO:3) or LXR (amino acids 156-461; SEQ ID NO:4) were expressed from pCMV-AD (Stratagene) as fusions to the transcriptional activation domain of NFkB. As cofactors, domains of either the steroid receptor coactivator 1 (SRC1; amino acids 552-887; SEQ ID NO:5) or of the corepressor NCoR (amino acids 1906-2312; NP006302; SEQ ID NO:6) were expressed as fusions to the DNA binding domain of the yeast transcription factor GAL4 (from pCMV-BD; Stratagene). Interaction was monitored via activation of a coexpressed Firefly Luciferase Reporter gene under control of a promoter containing repetitive GAL4 response elements (vector pFRLuc; Stratagene). Transfection efficiency was controlled via cotransfection of constitutively active pRL-CMV Renilla reniformis luciferase reporter (Promega). HEK293 cells were grown in minimum essential medium (MEM) with 2 mM L-glutamine and Earle's balanced salt solution supplemented with 8.3% fetal bovine serum, 0.1 mM non-essential amino acids, 1 mM sodium pyruvate, at 37° C. in 5% CO2. 3.5×10^4 cells/well were plated in 96-well cell culture plates in growth medium supplemented with 8.3% fetal bovine serum for 16-20 h to—90% confluency. For transfection, medium was taken off and LXR and cofactor expressing plasmids as well as the reporter plasmids are added in 30 μL OPTIMEM/well including polyethylene-imine (PEI) as vehicle. Typical amounts of plasmids transfected/well: pCMV-AD-LXR (5 ng), pCMV-BD-cofactor (5 ng), pFR-Luc (100 ng), pRL-CMV (0.5 ng). Compound stocks were prepared in DMSO, prediluted in MEM to a total volume of 120 μL, and added 4 h after addition of the transfection mixture (final vehicle concentration not exceeding 0.2%). Cells were incubated for additional 16 h, lysed for 10 min in 1×Passive Lysis Buffer (Promega) and Firefly and Renilla luciferase activities were measured sequentially in the same cell extract using buffers containing D-luciferine and coelenterazine, respectively. Measurements of luminescence were done in a BMG-luminometer.

The target in data set [2] is T2, LXRβ ligand-binding domain (LBD) (Homo sapiens, UniProt P55055, INS174Q).
T2 construct: or LXR (amino acids 156-461); expressed in transfected cells; host or cells: HEK293
T2 sequence (P55055 with tags, fused parts or gaps INS174Q limits assumed): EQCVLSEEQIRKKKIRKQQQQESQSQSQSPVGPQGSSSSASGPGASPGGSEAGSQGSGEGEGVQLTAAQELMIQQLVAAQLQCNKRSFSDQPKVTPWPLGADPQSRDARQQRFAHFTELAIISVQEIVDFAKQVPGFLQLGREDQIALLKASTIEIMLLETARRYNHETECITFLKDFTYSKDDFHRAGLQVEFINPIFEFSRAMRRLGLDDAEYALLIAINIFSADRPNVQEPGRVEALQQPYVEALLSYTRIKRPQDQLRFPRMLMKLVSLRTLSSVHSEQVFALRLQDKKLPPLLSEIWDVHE
Kind of data set: LXR Gal4 reporter transient transfection assay, mammalian two-hybrid, LBD-M2H Gal4β. In kind it is cell-based. The note with it: HEK293 cells; inverse agonist unless *. The procedure:
as §1, §2, §3

The target of data set [3] is T3, GST-LXRβ ligand-binding domain (Homo sapiens, UniProt P55055, INS174Q).
T3 construct: amino acids 156-461; NP009052; made in house; host or cells: E. coli
T3 sequence (P55055 with tags, fused parts or gaps INS174Q limits assumed): T2 sequence (P55055 with tags, fused parts or gaps INS174Q limits assumed)
Kind of data set: TR-FRETβ activity assay (NCoA3 coactivator peptide recruitment). In kind it is biochemical. The conditions noted are these: 1 μM 24(S)-25-epoxycholesterol as prestimulating agonist; inverse agonist unless *. Put shortly:
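E. coli-expressed GST-LXRβ LBD (aa 156-461, 76 nM) with biotinylated NCoA3 peptide (400 nM), anti-GST-Tb cryptate donor and streptavidin-XL665 acceptor in 240 mM KCl, BSA, 0.002% Triton X-100. Equilibrated 1 h at 4° C; TR-FRET read at 615/665 nm, triplicates.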

Data set [4] can be described thus: Pharmacokinetics in mice after single oral dosing, blood and liver exposure by LC-MS. In kind it is in vivo, mice (C57/bl6/J). The note with it: single oral dose 20 mg/kg. The procedure:
The pharmacokinetics of the compounds was assessed in mice after single dosing and oral administrations. Blood and liver exposure was measured via LC-MS.
The study design was as follows:
Animals: C57/bl6/J (Janvier) males Diet: standard rodent chow Dose: 20 mg/kg Animal handling: animals were withdrawn from food at least 12 h before administration Design: single dose oral administration, n=3 animals per group Sacrifice: at stated time point (4, 12 or 24 h) after administration Bioanalytics: LC-MS of liver and blood samples

Setting [5] is: male, C57/bl6/J, mouse, liver/blood, time point 4 h, read-out: liver/blood ratio.

`COc1cc(-c2cccc(C(C)(C)C(=O)O)c2)ccc1CN(Cc1ccc(C(F)(F)F)o1)Cc1c(C)ccc2ccccc12` [22/11]: the EC50 (usually the concentration that produces a half-maximal response) in data set [1] is < 100 nM; in data set [2] it was < 100 nM; in data set [3], 100 to 1000 nM. For the same compound, the Kp at 4 h in data set [4] (setting [5]) was found to be 4.8. The same compound registered a blood/plasma exposure in data set [4] (time point 4 h) of 0.57 µM. This compound also registered a liver exposure in data set [4] (time point 4 h) of 2.75 µM.

In the case of `Cc1ccc(CN(Cc2ccc(-c3cccc(C(C)(C)C(=O)O)c3)cc2)Cc2ccc(C(F)(F)F)o2)c2ccccc12` [24/1], the EC50 in data set [1], in data set [2] and in data set [3] was < 100 nM in each case. Moreover, in data set [4] (setting [5]), the Kp at 4 h came out at 8. The blood/plasma exposure in data set [4] (time point 4 h) stood at 2.25 µM. The same compound had a liver exposure in data set [4] (time point 4 h) of 18 µM.

`Cc1ccc2ncccc2c1CN(Cc1ccc(-c2cccc(C(C)(C)C(=O)O)c2)cc1)Cc1ccc(C(F)(F)F)o1` [24/3]: the EC50 in data set [1] was < 100 nM; in data set [2] it was < 100 nM; in data set [3] it was 100 to 1000 nM. Further, the Kp at 4 h in data set [4] (setting [5]) came out at 9.7. Also, the blood/plasma exposure in data set [4] (time point 4 h) was 1.22 µM. Moreover, the liver exposure in data set [4] (time point 4 h) was 11.8 µM.

As to `Cc1ncc2ccccc2c1CN(Cc1ccc(-c2cccc(C(C)(C)C(=O)O)c2)cc1)Cc1ccc(C(F)(F)F)o1` [24/4], the EC50 is < 100 nM in data set [1], < 100 nM in data set [2] and 100 to 1000 nM in data set [3].

In the case of `Cc1nc2ccccc2c(CN(Cc2ccc(-c3cccc(C(C)(C)C(=O)O)c3)cc2)Cc2ccc(C(F)(F)F)o2)c1C` [24/5], the EC50 in data set [1] and in data set [2] was < 100 nM in each case. In data set [3], the FRETβ result is reported as “D*”.

Turning to `Cc1cc(C)c2ccccc2c1CN(Cc1ccc(-c2cccc(C(C)(C)C(=O)O)c2)cc1)Cc1ccc(C(F)(F)F)o1` [24/6], the EC50 is < 100 nM in data set [1], < 100 nM in data set [2] and 100 to 1000 nM in data set [3].

Regarding `CC(C)(C(=O)O)c1cccc(-c2ccc(CN(Cc3ccc(C(F)(F)F)o3)Cc3cccc4nonc34)cc2)c1` [25/1], the EC50 in data set [1] is 100 to 1000 nM; in data set [2], < 100 nM. Moreover, the FRETβ result in data set [3] is reported as “B*”.

With `Cc1ccc2ccccc2c1CN(Cc1ccc(-c2cncc(C(C)(C)C(=O)O)c2)cc1)Cc1ccc(C(F)(F)F)o1` [26/1], the values for the 50% effective concentration (EC50) in data set [1], in data set [2] and in data set [3] were 100 to 1000 nM, < 100 nM and 1000 to 10000 nM, respectively.

Turning to `Cc1ccc2ccccc2c1CN(Cc1ccc(-c2cccc(CC(C)(C)C(=O)O)c2)cc1)Cc1ccc(C(F)(F)F)o1` [26/2], the EC50 in data set [1] is 100 to 1000 nM; in data set [2], < 100 nM; in data set [3] it was 1000 to 10000 nM.

In the case of `CC(C)(C(=O)O)c1cccc(-c2ccc(CN(Cc3ccc(C(F)(F)F)o3)C(=O)C34CC5CC(CC(C5)C3)C4)cc2)c1` [27/56], the EC50 in data set [1] was 100 to 1000 nM; in data set [2], < 100 nM. Besides, the FRETβ entry in data set [3] is reported as “B*”.

Consider `CC(C)(C(=O)O)c1cccc(-c2ccc(CN(Cc3ccc(C(F)(F)F)o3)Cc3c(C#N)ccc4ccccc34)cc2)c1` [27/67], for which the EC50 in data set [1], in data set [2] and in data set [3] was < 100 nM throughout. Moreover, the Kp at 4 h in data set [4] (setting [5]) worked out at 2.7. Further, in data set [4] (time point 4 h), the blood/plasma exposure turned out to be 4.46 µM. For the same compound, the liver exposure in data set [4] (time point 4 h) is 12.1 µM.

Turning to `CC(C)(C(=O)O)c1cccc(-c2ccc(CN(Cc3ccc(C(F)(F)F)o3)Cc3c(OC(F)F)ccc4ccccc34)cc2)c1` [27/68], the EC50 in data set [1], in data set [2] and in data set [3] was < 100 nM in each case.

In the case of `CC(C)(C(=O)O)c1cccc(-c2ccc(CN(Cc3ccc(C(F)(F)F)o3)Cc3c(C(F)F)ccc4ccccc34)cc2)c1` [27/69], the EC50 in data set [1] was < 100 nM; in data set [2], < 100 nM; in data set [3], 100 to 1000 nM.

Regarding `CC(C)(C(=O)O)c1cccc(-c2ccc(CN(Cc3ccc(C(F)(F)F)o3)C(=O)c3cccn4nccc34)cc2)c1` [27/70], the EC50 in data set [1] is 100 to 1000 nM; in data set [2], < 100 nM; in data set [3], 100 to 1000 nM.

In the case of `Cc1cc(C)c(CN(Cc2ccc(-c3cccc(S(=O)(=O)CC(=O)O)c3)cc2)Cc2ccc(C(F)(F)F)o2)c(C)c1` [Example 1, 2-((4′-((((5-(Trifluoromethyl)furan-2-yl)methyl)(2,4,6-trimethylbenzyl)amino)methyl)-1,1′-biphenyl-3-yl)sulfonyl)acetic acid], the EC50 is 1000 to 10000 nM in data set [1], 100 to 1000 nM in data set [2] and 1000 to 10000 nM in data set [3]. Also, the Kp at 4 h in data set [4] (setting [5]) is 51. In addition, in data set [4] (male, C57/bl6/J, mouse, liver/blood, time point 12 h, read-out: liver/blood ratio), the Kp at 12 h is 54. Further, the blood/plasma exposure in data set [4] (time point 4 h) amounted to 0.83 µM; in data set [4] (time point 12 h), 0.06 µM. Moreover, the liver exposure was found to be 42 µM in data set [4] (time point 4 h) and 3.2 µM in data set [4] (time point 12 h).

Regarding `Cc1cc(C)c(C(=O)N(Cc2ccc(-c3cccc(S(=O)(=O)CC(=O)O)c3)cc2)Cc2ccc(C(F)(F)F)o2)c(C)c1` [Example 4, 2-((4′-((2,4,6-Trimethyl-N-((5-(trifluoromethyl)furan-2-yl)methyl)benzamido)methyl)-1,1′-biphenyl-3-yl)sulfonyl)acetic acid], the EC50 is 100 to 1000 nM in data set [1], 100 to 1000 nM in data set [2] and 1000 to 10000 nM in data set [3]. The liver exposure in data set [4] (time point 12 h) was determined as 3.45 µM.

With `CC(c1cccc2ccccc12)N(Cc1ccc(-c2cccc(S(=O)(=O)CC(=O)O)c2)cc1)Cc1ccc(C(F)(F)F)o1` (stereo not shown) [Example 7, 2-((4′-(((1-(Naphthalen-1-yl)ethyl)((5-(trifluoromethyl)furan-2-yl)methyl)amino)methyl)-[1,1′-biphenyl]-3-yl)sulfonyl)acetic acid], the EC50 in data set [1], in data set [2] and in data set [3] was < 100 nM in each case.

Regarding `COC(=O)CS(=O)(=O)c1cc(-c2ccc(CN(Cc3ccc(C(F)(F)F)o3)Cc3c(C)cc(C)cc3C)cc2)cc(F)c1CO` [Example 13], the EC50 in data set [1] is 1000 to 10000 nM; in data set [2], < 100 nM; in data set [3], 100 to 1000 nM.
